In PMC5733122, “Purification, Characterization, and Mode of Action of Pentocin JL-1, a Novel Bacteriocin Isolated from Lactobacillus pentosus, against Drug-Resistant Staphylococcus aureus” (BioMed Research International, 2017):

Assays:
alkaline protease = assay: Enzymatic sensitivity, residual antibacterial activity; assay type: in vitro ADME; conditions: 1 h
Protocol: (§1) To determine enzymatic sensitivity, lyophilized purified pentocin JL-1 dissolved in 0.05% (w/v) acetic acid at 15 μg/mL was treated with the following enzymes at 75 μg/mL under their respective optimum pH and temperatures: proteinase K (pH 7.5, 37°C), trypsin (pH 8.0, 37°C), pepsin (pH 2.0, 37°C), and alkaline protease (pH 8.6, 50°C) (all from Sigma-Aldrich, USA). After incubation for 1 h, the bacteriocin-enzyme mixture was boiled for 5 min to inactivate the enzymes.
(§2) The residual antibacterial activities of the above samples were calculated using the agar-well diffusion test with MRSA GIM 1.771 as the indicator strain. […] Lyophilized pentocin JL-1 dissolved in 0.05% (w/v) acetic acid at 15 μg/mL with pH 5.5 was used as a control in all assays.

pepsin = target: T1, pepsin (Sus scrofa, UniProt P00791); assay: as above; assay type: in vitro ADME; conditions: Pepsin 75 μg/mL (pH 1.8, 37°C), 1 h, pentocin JL-1 15 μg/mL
T1 construct: purchased Sigma-Aldrich
Protocol: as §1, §2

[1] = pH stability, residual antibacterial activity; assay type: physicochemical; conditions: 1 h; for Residual inhibitory activity (inhibition zone diameter, mm): 15 μg/mL in 0.05% acetic acid, agar-well diffusion vs MRSA GIM 1.771, mean ± SD, triplicate; for Residual inhibitory activity (inhibition zone diameter, mm) / Residual inhibitory activity (%): readjusted to pH 5.5; for Residual inhibitory activity (%): 15 μg/mL, vs MRSA GIM 1.771, relative to control pH 5.5
Protocol: To determine pH stability, lyophilized purified pentocin JL-1 was dissolved in 0.05% (w/v) acetic acid at 15 μg/mL and was adjusted with 1.0 M HCl or 1.0 M NaOH to different pH values of 2.0, 3.0, 4.0, 5.0, 6.0, 7.0, 8.0, 9.0, and 10.0. Then the above samples were incubated at 37°C for 1 h and were adjusted to pH 5.5 with 1.0 M HCl or 1.0 M NaOH.
as §2

[2] = tested on: Multidrug-resistant S. aureus 3; assay: Agar-well diffusion test; assay type: cell-based; conditions: 15 μg/mL, pH 5.5, pork isolate resistant to FOX, TET, GEN, mean ± SD, triplicate
Protocol: (§3) The intestinal tracts of C. punctatum (grey carpet shark) were dissected and homogenized in 20 mL saline solution under sterile conditions and were then plated in serial dilutions in deMan, Rogosa, and Sharpe (MRS) medium. The plates were incubated aerobically at 30°C for 24 h. Several colonies were picked at random and incubated again in MRS broth. For screening for bacteriocin-producing strains, the agar-well diffusion test was used to detect antimicrobial activity in cell-free supernatants (filtered through a 0.22 μm Millipore filter) obtained by centrifugation (10,000g, 30 min, 4°C) after 18, 36, 60, and 72 h incubation. The Gram-positive strain MRSA GIM 1.771 and the Gram-negative strain Escherichia coli O157:H7 GIM 1.707 were used as indicator strains. Before the experiments, the indicator strains were grown to 10^6 CFU/mL. Then, 1 mL of the culture was mixed with 100 mL soft agar medium and poured onto individual Petri dishes. Subsequently, 8 mm diameter wells were punched onto the plates, and each well was filled with 100 μL of the cell-free supernatants under sterile conditions. The plates were incubated overnight at their respective optimum temperatures, and the clear zones of inhibition were measured in diameter and indicated the presence of antimicrobial activity. In our study, all bacteria culture media and chemical reagents were supplied by Sigma-Aldrich (USA).
(§4) The agar-well diffusion test as described previously was used to detect the antimicrobial activity of the purified pentocin JL-1 (15 μg/mL, pH 5.5). LAB strains were grown in MRS broth at 30°C for 16 h. Other Gram-positive indicator strains were grown in Tryptone Soy Broth (TSB) medium at 37°C and the Gram-negative indicator strains were grown in Luria-Bertani broth medium at 37°C.

[3] = tested on: Multidrug-resistant S. aureus 4; assay: Agar-well diffusion test; assay type: cell-based; conditions: 15 μg/mL, pH 5.5, pork isolate resistant to FOX, TET, C, mean ± SD, triplicate
Protocol: as §3, §4

[4] = tested on: Listeria monocytogenes ATCC19112; assay: Agar-well diffusion test; assay type: cell-based
Protocol: as §3, §4

[5] = tested on: Vibrio parahaemolyticus GIM1.306; assay: Agar-well diffusion test; assay type: cell-based
Protocol: as §3, §4

[6] = tested on: Bacillus subtilis CGMCC1.1627; assay: Agar-well diffusion test; assay type: cell-based
Protocol: as §3, §4

[7] = tested on: Pseudomonas aeruginosa CGMCC1.1785; assay: Agar-well diffusion test; assay type: cell-based
Protocol: as §3, §4

[8] = tested on: Micrococcus luteus CGMCC1.2299; assay: Agar-well diffusion test; assay type: cell-based
Protocol: as §3, §4

[9] = tested on: Multidrug-resistant S. aureus 6; assay: Agar-well diffusion test; assay type: cell-based; conditions: 15 μg/mL, pH 5.5, pork isolate resistant to CIP, FOX, C, SXT, TET, GEN, mean ± SD, triplicate
Protocol: as §3, §4

[10] = tested on: Multidrug-resistant S. aureus 5; assay: Agar-well diffusion test; assay type: cell-based; conditions: 15 μg/mL, pH 5.5, pork isolate resistant to FOX, TET, GEN, C, mean ± SD, triplicate
Protocol: as §3, §4

[11] = tested on: Enterococcus faecalis ATCC51575; assay: Agar-well diffusion test; assay type: cell-based
Protocol: as §3, §4

[12] = purified pentocin JL-1 15 μg/mL, pH 5.5, inhibition zone diameter class incl. 8 mm well

T1 sequence (P00791 60-385): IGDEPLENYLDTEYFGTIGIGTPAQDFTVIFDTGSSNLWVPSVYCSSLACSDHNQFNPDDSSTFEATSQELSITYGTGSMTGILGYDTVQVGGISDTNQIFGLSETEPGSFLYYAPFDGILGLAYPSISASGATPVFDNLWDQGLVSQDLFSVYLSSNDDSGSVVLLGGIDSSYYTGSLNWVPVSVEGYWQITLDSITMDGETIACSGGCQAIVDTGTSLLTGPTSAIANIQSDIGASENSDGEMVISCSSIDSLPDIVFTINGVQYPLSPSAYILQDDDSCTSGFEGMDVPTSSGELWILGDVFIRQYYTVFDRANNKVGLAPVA

VAKVAR [pentocin JL-1, novel bacteriocin produced by Lactobacillus pentosus JL-1, purified by four-step chromatography, molecular mass 2987.23 Da, cationic and hydrophobic peptide]
Residual inhibitory activity (inhibition zone diameter, mm) (alkaline protease; Alkaline protease 75 μg/mL (pH 8.6, 50°C), then boiled 5 min, pentocin JL-1 15 μg/mL, agar-well diffusion vs MRSA GIM 1.771, mean ± SD, triplicate): 0.0 ± 0.0 mm | Residual inhibitory activity (%) (alkaline protease; Alkaline protease 75 μg/mL (pH 8.6, 50°C), pentocin JL-1 15 μg/mL, vs MRSA GIM 1.771, relative to control): 0.00^∗ % | inhibitory action after enzyme treatment (alkaline protease; alkaline protease 75 μg/mL): completely abolished | Residual inhibitory activity (inhibition zone diameter, mm) (pepsin; then boiled 5 min, agar-well diffusion vs MRSA GIM 1.771, mean ± SD, triplicate): 0.0 ± 0.0 mm | Residual inhibitory activity (%) (pepsin; vs MRSA GIM 1.771, relative to control): 0.00^∗ % | pH range tolerated / stable ([1]; 37°C, no significant differences in antimicrobial activity (p > 0.05)): 5–7 | Residual inhibitory activity (inhibition zone diameter, mm) ([1]; pH 2.0, 37°C): 15.7 ± 1.4 mm | Residual inhibitory activity (%) ([1]; pH 2.0, 37°C): 65.69^∗ % | Residual inhibitory activity (inhibition zone diameter, mm) ([1]; pH 3.0, 37°C): 16.2 ± 1.8 mm | Residual inhibitory activity (%) ([1]; pH 3.0, 37°C): 67.78^∗ % | Residual inhibitory activity (inhibition zone diameter, mm) ([1]; pH 4.0, 37°C): 16.8 ± 1.2 mm | Residual inhibitory activity (%) ([1]; pH 4.0, 37°C): 70.29^∗ % | Residual inhibitory activity (inhibition zone diameter, mm) ([1]; pH 5.0, 37°C): 23.9 ± 0.4 mm | Residual inhibitory activity (%) ([1]; pH 5.0, 37°C): 100.00% | Residual inhibitory activity (inhibition zone diameter, mm) ([1]; pH 6.0, 37°C): 23.9 ± 0.8 mm | Residual inhibitory activity (%) ([1]; pH 6.0, 37°C): 100.00% | Residual inhibitory activity (inhibition zone diameter, mm) ([1]; pH 7.0, 37°C): 23.6 ± 0.6 mm | Residual inhibitory activity (%) ([1]; pH 7.0, 37°C): 98.74% | Residual inhibitory activity (inhibition zone diameter, mm) ([1]; pH 8.0, 37°C): 14.6 ± 0.3 mm | Residual inhibitory activity (%) ([1]; pH 8.0, 37°C): 61.09^∗ % | Residual inhibitory activity (inhibition zone diameter, mm) ([1]; pH 9.0, 37°C): 12.9 ± 0.9 mm | Residual inhibitory activity (%) ([1]; pH 9.0, 37°C): 53.97^∗ % | Residual inhibitory activity (inhibition zone diameter, mm) ([1]; pH 10.0, 37°C): 12.5 ± 1.6 mm | Residual inhibitory activity (%) ([1]; pH 10.0, 37°C): 52.30^∗ % | Inhibitor zone [2]: 24.3 ± 0.7 mm | Inhibitor zone [3]: 22.4 ± 0.6 mm | inhibitory activity ([4]; 15 μg/mL, pH 5.5): inhibited | Antimicrobial activity [4, 12]: ++ (++: 15–19) | inhibitory activity ([5]; 15 μg/mL, pH 5.5): no inhibitory activity | Antimicrobial activity [5, 12]: − | inhibitory activity ([6]; 15 μg/mL, pH 5.5): inhibited | Antimicrobial activity [6, 12]: ++ (++: 15–19) | inhibitory activity ([7]; 15 μg/mL, pH 5.5): inhibited | Antimicrobial activity [7, 12]: + (+: 10–14) | inhibitory activity ([8]; 15 μg/mL, pH 5.5): inhibited | Antimicrobial activity [8, 12]: ++ (++: 15–19) | Inhibitor zone [9]: 23.7 ± 0.6 mm | Inhibitor zone [10]: 23.9 ± 1.5 mm | inhibitory activity ([11]; 15 μg/mL, pH 5.5): inhibited | Antimicrobial activity [11, 12]: ++ (++: 15–19)
